Data as given in ChEMBL document CHEMBL2021860, “Structure-activity relationships and key structural feature of pyridyloxybenzene-acylsulfonamides as new, potent, and selective peroxisome proliferator-activated receptor (PPAR) γ Agonists” (Bioorg Med Chem, 2012).

How the values were obtained:
[1] = Clearance in rat liver microsomes at 1 umol/L after 20 mins by HPLC analysis in presence of NADPH; type: ADME, Microsome; settings: read-out: CLH
[2] = Clearance in human liver microsomes at 1 umol/L after 20 mins by HPLC analysis in presence of NADPH; type: ADME, Microsome; settings: read-out: CLH
[3] = molecular target: T1, Peroxisome proliferator-activated receptor gamma (Homo sapiens, UniProt P37231); experiment: Transactivation of human PPARgamma1 expressed in CHO-K1 cells co-expressing RXRalpha and PPRE after 1 day by luciferase reporter gene assay; type: cell-based
T1 sequence (P37231 whole entry): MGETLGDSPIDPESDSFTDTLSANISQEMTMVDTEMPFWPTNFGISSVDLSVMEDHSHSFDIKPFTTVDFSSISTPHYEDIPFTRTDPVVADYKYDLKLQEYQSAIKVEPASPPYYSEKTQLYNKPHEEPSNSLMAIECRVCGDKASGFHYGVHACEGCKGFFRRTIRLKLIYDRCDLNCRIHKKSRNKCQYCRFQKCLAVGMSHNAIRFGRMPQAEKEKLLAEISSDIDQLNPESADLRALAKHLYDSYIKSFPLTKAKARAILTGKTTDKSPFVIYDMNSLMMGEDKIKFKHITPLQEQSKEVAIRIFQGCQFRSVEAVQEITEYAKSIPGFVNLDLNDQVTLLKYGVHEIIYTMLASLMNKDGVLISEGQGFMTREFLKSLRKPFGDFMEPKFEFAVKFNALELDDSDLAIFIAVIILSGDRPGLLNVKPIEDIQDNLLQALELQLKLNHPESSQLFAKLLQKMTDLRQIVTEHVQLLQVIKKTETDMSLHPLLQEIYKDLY

[4] = Dissociation constant, pKa of the compound; type: physicochemical
[5] = Clearance in human liver microsomes at 1 umol/L after 2 hrs by HPLC analysis in absence of NADPH; type: ADME, Microsome; settings: read-out: CLH
[6] = Clearance in rat liver microsomes at 1 umol/L after 2 hrs by HPLC analysis in absence of NADPH; type: ADME, Microsome; settings: read-out: CLH
[7] = AUC (0 to 24 hrs) in Wistar fatty rat at 0.18 mg/kg, po; type: ADME, organism-based; set-up: time < 24 hr, dose 0.18 mg/kg, route oral; settings: plasma
[8] = molecular target: T2, Peroxisome proliferator-activated receptor delta (Homo sapiens, UniProt Q03181); experiment: Transactivation of human PPARdelta expressed in african green monkey COS1 cells after 1 day by luciferase reporter gene assay; type: cell-based, COS-1
T2 sequence (Q03181 whole entry): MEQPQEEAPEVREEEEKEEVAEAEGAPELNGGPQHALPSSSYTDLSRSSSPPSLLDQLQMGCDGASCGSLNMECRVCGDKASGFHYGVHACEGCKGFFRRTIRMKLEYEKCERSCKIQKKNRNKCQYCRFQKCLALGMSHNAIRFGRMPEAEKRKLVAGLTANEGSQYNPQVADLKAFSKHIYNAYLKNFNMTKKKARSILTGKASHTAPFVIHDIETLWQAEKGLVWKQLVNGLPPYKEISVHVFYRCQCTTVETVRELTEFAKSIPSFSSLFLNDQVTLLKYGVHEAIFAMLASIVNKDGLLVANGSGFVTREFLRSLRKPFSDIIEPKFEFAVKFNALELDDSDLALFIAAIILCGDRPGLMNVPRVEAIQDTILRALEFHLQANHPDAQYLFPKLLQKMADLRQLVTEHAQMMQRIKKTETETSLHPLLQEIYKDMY

[9] = molecular target: T1, Peroxisome proliferator-activated receptor gamma; experiment: Displacement of [3H]-AD-5061 from human GST-tagged PPARgamma
Rattus norvegicus [10] = experiment: Antidiabetic activity in po dosed Wistar fatty rat type 2 diabetes model assessed as reduction on plasma triglyceride level administered once daily for 7 days measured by autoanalyzer relative to control; type: functional; settings: 168 h
[11] = molecular target: T3, Peroxisome proliferator-activated receptor alpha (Homo sapiens, UniProt Q07869); experiment: Transactivation of human PPARalpha expressed in african green monkey COS1 cells after 1 day by luciferase reporter gene assay; type: cell-based, COS-1
T3 sequence (Q07869 whole entry): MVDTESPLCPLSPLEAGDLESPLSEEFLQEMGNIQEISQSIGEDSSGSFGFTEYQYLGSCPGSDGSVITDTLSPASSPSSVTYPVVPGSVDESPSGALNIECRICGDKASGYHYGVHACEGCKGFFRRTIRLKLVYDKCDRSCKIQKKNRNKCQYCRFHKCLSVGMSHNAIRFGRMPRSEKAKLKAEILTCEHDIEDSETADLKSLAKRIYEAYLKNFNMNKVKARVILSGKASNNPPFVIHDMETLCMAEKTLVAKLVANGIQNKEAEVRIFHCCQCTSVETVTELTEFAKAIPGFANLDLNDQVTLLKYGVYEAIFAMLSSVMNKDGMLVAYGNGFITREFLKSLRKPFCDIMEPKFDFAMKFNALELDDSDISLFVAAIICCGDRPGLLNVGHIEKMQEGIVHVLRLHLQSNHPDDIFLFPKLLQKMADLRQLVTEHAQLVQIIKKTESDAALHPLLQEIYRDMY

[12] = Cmax in Wistar fatty rat at 0.18 mg/kg, po; type: ADME, organism-based; set-up: dose 0.18 mg/kg, route oral; settings: in vivo
Rattus norvegicus [13] = experiment: Antidiabetic activity in po dosed Wistar fatty rat type 2 diabetes model assessed as reduction on plasma glucose level administered once daily for 7 days measured by autoanalyzer relative to control; type: functional; settings: 168 h

Structure (SMILES) | microsomal CLint at 1 µM [1] | microsomal CLint at 1 µM [2] | EC50 [3] | further results
CCCCCS(=O)(=O)NC(=O)/C(C)=C/c1ccc(OCCOC)cc1Oc1ncc(C(F)(F)F)cc1Cl | 20 µL/min/mg | 20 µL/min/mg | – | –
CCCCCNS(=O)(=O)NC(=O)CCc1ccc(OCCOC)cc1Oc1ncc(C(F)(F)F)cc1Cl | 111 µL/min/mg | 70 µL/min/mg | – | –
CCCCCS(=O)(=O)NC(=O)/C=C/c1ccc(OCCCOC)cc1Oc1ncc(C(F)(F)F)cc1Cl | 15 µL/min/mg | 16 µL/min/mg | – | –
CCCCCS(=O)(=O)NC(=O)/C=C/c1ccc(OCCO)cc1Oc1ncc(C(F)(F)F)cc1Cl | < 1 µL/min/mg | < 1 µL/min/mg | – | –
CCCCCS(=O)(=O)NC(=O)/C=C/c1ccc(OCCC(C)=O)cc1Oc1ncc(C(F)(F)F)cc1Cl | 19 µL/min/mg | 30 µL/min/mg | 59 nM | –
CCCCCS(=O)(=O)NC(=O)/C=C/c1ccc(OCCCS(C)(=O)=O)cc1Oc1ncc(C(F)(F)F)cc1Cl | < 1 µL/min/mg | 6 µL/min/mg | 320 nM | –
CCCCCS(=O)(=O)NC(=O)/C=C/c1ccc(OCCCC#N)cc1Oc1ncc(C(F)(F)F)cc1Cl | 19 µL/min/mg | 23 µL/min/mg | – | –
CCCCCNC(=O)CCc1ccc(OC(C)C)cc1Oc1ncc(C(F)(F)F)cc1Cl | – | – | 290 nM | –
CCCCCS(=O)(=O)NCCCc1ccc(OCCOC)cc1Oc1ncc(C(F)(F)F)cc1Cl | 204 µL/min/mg | 210 µL/min/mg | 32 nM | –
CCCCOC(=O)NCCCc1ccc(OCCOC)cc1Oc1ncc(C(F)(F)F)cc1Cl | – | – | 38 nM | –
CCCCNC(=O)OCCCc1ccc(OCCOC)cc1Oc1ncc(C(F)(F)F)cc1Cl | – | – | 48 nM | –
CCCCCS(=O)(=O)NC(=O)OCCCc1ccc(OCCOC)cc1Oc1ncc(C(F)(F)F)cc1Cl | 35 µL/min/mg | 90 µL/min/mg | – | pKa [4]: 4.6
CCCCCS(=O)(=O)NC(=O)CCc1ccccc1Oc1ncc(C(F)(F)F)cc1Cl | 120 µL/min/mg | 78 µL/min/mg | 61 nM | –
CCCCCS(=O)(=O)NC(=O)CCc1ccc(OC(C)C)cc1Oc1ncc(C(F)(F)F)cc1Cl | 94 µL/min/mg | 57 µL/min/mg | – | –
CCCCCS(=O)(=O)NC(=O)CCc1ccc(OCCOC)cc1Oc1ncc(C(F)(F)F)cc1Cl | 62 µL/min/mg | 77 µL/min/mg | – | pKa [4]: 4.6; metabolised at 2 h, 1 µM [5]: 50.1%; metabolised at 2 h, 1 µM [6]: 13.6%
CCCCCS(=O)(=O)NC(=O)CCc1ccc(OCC(=O)N(CC)CC)cc1Oc1ncc(C(F)(F)F)cc1Cl | 92 µL/min/mg | 95 µL/min/mg | – | –
CCCCCS(=O)(=O)NC(=O)CCc1ccc(OCCN2CCCC2=O)cc1Oc1ncc(C(F)(F)F)cc1Cl | 104 µL/min/mg | 78 µL/min/mg | – | –

Structure (SMILES) | microsomal CLint at 1 µM [1] | microsomal CLint at 1 µM [2] | EC50 [3] | further results
COCCCS(=O)(=O)NC(=O)CCc1ccc(OCCOC)cc1Oc1ncc(C(F)(F)F)cc1Cl | 11 µL/min/mg | 7 µL/min/mg | 11 nM | –
COCCOc1ccc(CCC(=O)NS(=O)(=O)c2ccccc2)c(Oc2ncc(C(F)(F)F)cc2Cl)c1 | – | – | 32 nM | –
COCCOc1ccc(CCC(=O)NS(=O)(=O)c2ccc(Cl)cc2)c(Oc2ncc(C(F)(F)F)cc2Cl)c1 | 71 µL/min/mg | 67 µL/min/mg | 8.6 nM | –
CCCCCS(=O)(=O)NC(=O)/C=C/c1ccc(OCCOC)cc1Oc1ncc(C(F)(F)F)cc1Cl | 6 µL/min/mg | 9 µL/min/mg | – | AUC(0-t) at 24 h [7]: 15300 ng·h/mL; EC50 [8]: > 10000 nM; IC50 [9]: 330 nM; ED25 (Rattus norvegicus [10]): 0.2 mg/kg; EC50 [11]: > 10000 nM; Cmax [12]: 946 ng/mL; ED25 (Rattus norvegicus [13]): 0.17 mg/kg; metabolised at 2 h, 1 µM [5]: 94.8%; metabolised at 2 h, 1 µM [6]: 87.3%
CCCCCS(=O)(=O)NC(=O)C(C)Cc1ccc(OCCOC)cc1Oc1ncc(C(F)(F)F)cc1Cl (stereo not drawn) | 189 µL/min/mg | 128 µL/min/mg | – | –
CCCCCS(=O)(=O)NC(=O)C(C)(C)Cc1ccc(OCCOC)cc1Oc1ncc(C(F)(F)F)cc1Cl | 78 µL/min/mg | 113 µL/min/mg | – | –
CCCCCS(=O)(=O)NC(=O)C1CC1c1ccc(OCCOC)cc1Oc1ncc(C(F)(F)F)cc1Cl (stereo not drawn) | – | 40 µL/min/mg | 5.5 nM | hepatic extraction ratio at 20 min, 1 µM [1]: 0.26; metabolised at 2 h, 1 µM [5]: 73.8%; metabolised at 2 h, 1 µM [6]: 81.7%
CCCCCS(=O)(=O)NC(=O)C(Cc1ccc(OCCOC)cc1Oc1ncc(C(F)(F)F)cc1Cl)OC (stereo not drawn) | 15 µL/min/mg | 72 µL/min/mg | – | –
CCCCCS(=O)(=O)NC(=O)OCc1ccc(OCCOC)cc1Oc1ncc(C(F)(F)F)cc1Cl | 31 µL/min/mg | 23 µL/min/mg | – | –
CCCCCS(=O)(=O)NC(=O)/C=C/c1ccc(OCCOC)cc1Oc1ccc(C(F)(F)F)cc1Cl | 10 µL/min/mg | 14 µL/min/mg | 94 nM | –
CCCCCS(=O)(=O)NC(=O)/C=C/c1ccc(OCCOC)cc1Oc1ccc(C(F)(F)F)cn1 | < 1 µL/min/mg | < 1 µL/min/mg | > 10000 nM | –
CCCCCS(=O)(=O)NC(=O)/C=C/c1ccc(OCCOC)cc1Oc1ncccc1Cl | 15 µL/min/mg | 18 µL/min/mg | > 10000 nM | –
CCCCCS(=O)(=O)NC(=O)/C=C/c1ccc(OCCOC)cc1Oc1ncc(Cl)cc1Cl | 9 µL/min/mg | 9 µL/min/mg | 190 nM | –
CCCCCS(=O)(=O)NC(=O)/C=C/c1ccc(OCCOC)cc1Oc1ncc(NC(C)=O)cc1C | – | – | > 10000 nM | –
CCCCCS(=O)(=O)NC(=O)/C=C/c1ccc(OC(C)C)cc1Oc1ncc(C(F)(F)F)cc1Cl | 19 µL/min/mg | 19 µL/min/mg | – | –
CCCCCS(=O)(=O)NC(=O)/C=C/c1ccc(OCCOC2CC2)cc1Oc1ncc(C(F)(F)F)cc1Cl | 17 µL/min/mg | 25 µL/min/mg | – | –
CCCCCS(=O)(=O)NC(=O)/C=C/c1ccc(OCCOC)cc1Oc1ncc(N)cc1C | – | – | > 10000 nM | –
